Entries after “also recorded” stand apart in the source; their conditions may differ. Where no end group is shown, it is not given here.
What was measured:
[1] = tested on: regulatory T lymphocytes (CD25+); assay: Inhibition of suppressant action of regulatory T lymphocytes (CD25+) on splenocyte proliferation; assay type: cell-based, Balb-c mice; details: for dose dependence of inhibition of regulatory T lymphocyte action: 50 μM and double dilutions
Experimental: 1. OBTAINMENT OF TOTAL SPLENOCYTES: To obtain splenocytes from 6-week old, female Balb-c mice, 4 animals were sacrificed, and after extracting the spleen, they were transferred to a clean medium for their dispersion with crystals, the homogenate was filtered (70-micron filter) and transferred to 50-ml tubes, for their subsequent washing and centrifugation. The cells obtained were incubated for 1 minute in lysis buffer, for the elimination of erythrocytes and they were subsequently washed with clean culture medium. Finally, the cells obtained were resuspended in 1 ml of AUTOMACS medium and they were counted. 2. PURIFICATION OF CD25+ LYMPHOCYTES: the purification of CD25+ lymphocytes was performed by the use of magnetic columns labelling with CD25PE and after incubation, anti-PE magnetic microspheres (Phycoerythrin) were added. After incubation, washing and filtration (30-micron filter) the samples were passed through a magnetic column, obtaining the eluate containing the CD25− population by gravity. Once the column is extracted from the magnetic field it is washed under pressure, obtaining the CD25+ cells. 3. SUPPRESSANT ACTIVITY ASSAY: To verify the regulating nature of the CD25+ population, a total of 100,000 splenocytes was seeded per well on a U-bottomed 96-well plate, in a volume of 200 μl per well and anti-CD3 antibody ([…]) alone or opposing CD25+ or CD25−, placing 25,000 cells per well (CD25+) or 50,000 cells per well (CD25−), performing double dilutions of the concentration of these cells. 4. ASSAY FOR THE INHIBITION OF SUPPRESSANT ACTION BY PEPTIDES: On the U-bottomed 96-well plate, with 200 μl vol/well, 100,000 splenocytes were seeded per well and anti-CD3 antibody (0.5 μl/well) plus 25,000 CD25+ lymphocytes per well. Peptides were added to these mixtures (3 columns/peptide, 50 MicroM in the 1st row and double dilution in the following three rows). 3 peptides were assayed: P17(1-11) SEQ ID NO: 3, P17(1-11)am SEQ ID NO: 4 and AcP17(1-11)am SEQ ID NO: 5. Both this assay and that of the suppressant activity were incubated at 37° C. for 48 h, tritium labelled thymidine was added at 0.5 μCi/well and it is harvested after 8 h, subsequently counting the CPM emitted by the cells from each well. 5. VERIFICATION OF THE EFFECTIVE SEPARATION OF THE Treg: Labelling with fluorescent anti-CD4 and anti-CD25 antibodies and analysis by flow cytometry (89% of the population magnetically separated is DC4+CD25+).

[2] = tested on: CT26 cells; assay: Tumour growth of subcutaneous CT26 in AH1-immunized mice treated with peptides; assay type: in vivo, balb-c mice; details: 50 μg/mouse/48 h i.p. between days 6 and 10, s.c. CT26 on day 0, AH1 immunization 10 days before
Experimental: GROUPS: 4 groups of 7 female balb-c mice, of 6 weeks old/group.
AH1+FIA s.c.+p144 (50 μg i.p./dose/mouse) AH1+FIA s.c.+p17(1-11) (50 μg i.p./dose/mouse) DESIGN: AH1+FIA: […]; Peptides: from day −6 on alternate days until day 10: Tumour model volume: Each 3 days from day 10 to day 41. Challenge on day 0 with CT26 (500000 cells/mouse s.c. in the flank).
REDUCTION IN THE MEAN TUMOUR VOLUME BY GROUPS TREATED WITH PEPTIDES: The effect of peptides p144 and p17(1-11)Am was studied in a tumour progression model. In this model, mice were immunized with 50 μg of AH1 10 days before the administration of 5×10^5 CT26 cells. In order to verify the effect of blocking the TGF-β1 on the protection against CT tumour cells, another two groups of mice were treated on alternate days by intraperitoneal route between days 6 and 10 (50 μg/mouse/48 h) with peptides p144 and p17(1-11)Am. […] This protection reached 100% of the animals in the case of p144 (FIG. 16).

[3] = tested on: MC38, LLC, CT26 and RENCA tumour lines; assay: NK cell cytotoxicity, 51Cr release assay; assay type: cell-based, mouse; details: effector cells with/without p17 for 6 days; 4.5 h 51Cr release
Experimental: They were performed from spleen cells from RAG^−/− mice, without T and B lymphocytes. In some cases, the total splenocytes was cultured on 6-well plates at 4×10^6 cells per ml of RPMI medium enriched with 10% SBF, L-glutamine, antibiotics, non-essential amino acids, β-mercaptoethanol and human recombinant interleukin-2 (Chiron) at 600 IU/ml. In half the wells, peptide p17 was added at a concentration of 150 μg/ml. After 48 hours, the medium was removed and the wells were washed with RPMI medium to discard the non-adherent cells. Next, fresh medium was added with/without peptide. On day +5, the medium was again changed, this time replacing all the cells and peptide p17 in the corresponding cultures. The cells counts with trypan blue were performed on days +5 and +6 of this culture. In other cases, NK cells from mouse splenocytes were purified by an immunomagnetic selection using the MiniMACS system, anti-DX5 beads and MS columns (Miltenyi Biotech) according to the manufacturer's instructions. […]
The cytotoxicity of NK cells was verified by standard 4.5 h ^51Cr release assays. […] Finally, the release of ^51Cr due to lysis by NK cells was measured after 4.5 h in a TopCount Scintillation counter (Perkin Elmer). The cytotoxicity was measured as a percentage of Cr released with respect to the total acquired by the cells. […]

Substance	inhibition of the suppressant effect of regulatory T lymphocytes ([1]; peptide 50 μM)	dose dependence of inhibition of regulatory T lymphocyte action [1]	inhibition of the suppressant effect of regulatory T lymphocytes ([1]; peptide 50 μM, listed as P17(1-1)am)	tumour growth [2]	tumour growth ([2]; listed as p17(1-11)Am)	inhibition of the suppressant effect of regulatory T lymphocytes ([1]; peptide 25 μM) [%]	cytotoxic activity of NK cells against tumour lines [3]
p17(1-11): fragment of peptide p17, amino acids 1 to 11, SEQ ID NO: 3 (KRIWFIPRSSW)	20%						
p17(1-11)am: amino acids 1 to 11 of peptide p17, position 11 (tryptophan) amidated, SEQ ID NO: 4 (KRIWFIPRSSW-NH2)	128%	dose-dependent	totally inhibiting	delay tumour growth	protection against tumour growth		
Acp17(1-11)am: p17(1-11)am which further has position 1 (lysine) acetylated, SEQ ID NO: 5 (Ac-KRIWFIPRSSW-NH2)	totally inhibiting	dose-dependent				148	
KRIWFIPRSSWYERA [p17]							improves the cytotoxic activity; also recorded: increases the cytotoxicity
